Laboratory results: ChEMBL document CHEMBL5584307, “Discovery of a Potent and Orally Bioavailable Xanthine Oxidase/Urate Transporter 1 Dual Inhibitor as a Potential Treatment for Hyperuricemia and Gout” (J Med Chem, 2024)

Experiments:
[1] = AUC (last) in Beagle dog at 1 mg/kg, iv measured upto 24 hrs by LC-MS/MS analysis; assay type: ADME, organism-based, Canis lupus familiaris; conditions: in vivo
[2] = Toxicity in Sprague-Dawley rat assessed as development-limiting effect; conditions: in vivo
Cytochrome P450 2D6 = Cytochrome P450 2D6 (Homo sapiens, UniProt P10635); assay: Inhibition of CYP2D6 in human liver microsomes in presence of NADPH by LC-MS/MS analysis; assay type: ADME, Microsome
[3] = Toxicity in cynomolgous monkey assessed as distended abdomen at 200 mg/kg/day for 28 days consecutively; assay type: organism-based, Macaca fascicularis; conditions: cynomolgus monkey, in vivo, 672 h, time 28 day
[4] = AUC (last) in Beagle dog at 5 mg/kg, po measured upto 24 hrs by LC-MS/MS analysis; assay type: ADME, organism-based, Canis lupus familiaris; conditions: in vivo
[5] = Genotoxicity in Salmonella typhimurium TA102 by Ames test; assay type: toxicity; conditions: salmonella enterica subsp. enterica serovar typhimurium
[6] = Oral bioavailability in Beagle dog at 5 mg/kg measured upto 24 hrs by LC-MS/MS analysis; assay type: ADME, organism-based, Canis lupus familiaris; conditions: in vivo
[7] = Cmax in Tufted capuchin monkey at 30 mg/kg, po measured for 24 hrs by LC-MS/MS analysis; assay type: ADME, organism-based; conditions: sapajus apella, in vivo
[8] = Volume of distribution at steady state in overnight-fasted Sprague-Dawley rat at 5 mg/kg, po or 1 mg/kg, iv measured upto 24 hrs by LC-MS/MS analysis; assay type: ADME, organism-based; conditions: in vivo
[9] = Clearance in Beagle dog at 1 mg/kg, iv measured upto 24 hrs by LC-MS/MS analysis; assay type: ADME, organism-based, Canis lupus familiaris; conditions: in vivo
[10] = Clearance in overnight-fasted Sprague-Dawley rat at 1 mg/kg, iv measured upto 24 hrs by LC-MS/MS analysis; assay type: ADME, organism-based; conditions: in vivo
[11] = AUC (last) in Cynomolgous monkey at 1 mg/kg, iv measured upto 24 hrs by LC-MS/MS analysis; assay type: ADME, organism-based, Macaca fascicularis; conditions: cynomolgus monkey, in vivo
[12] = Toxicity in rat assessed as increase in salivation at 120 mg/kg/day for 28 days; assay type: organism-based; conditions: in vivo, 672 h, time 28 day
[13] = Toxicity in cynomolgous monkey assessed as increase in fluid feces at 90 to 200 mg/kg/day for 28 days consecutively; assay type: organism-based, Macaca fascicularis; conditions: cynomolgus monkey, in vivo, 672 h; dose 90-200 mg/kg/day, time 28 day
[14] = Tmax in Tufted capuchin monkey at 100 mg/kg, po measured for 24 hrs by LC-MS/MS analysis; assay type: ADME, organism-based; conditions: sapajus apella, in vivo
[15] = Toxicity in rat assessed as increase in liver weight at 60 to 120 mg/kg/day for 28 days; assay type: organism-based; conditions: in vivo, 672 h, dose 60-120 mg/kg/day, time 28 day
[16] = Toxicity in rat assessed as single-cellular necrosis of mucosal epithelium in colon at 120 mg/kg/day for 28 days by H and E staining based analysis; assay type: organism-based; conditions: in vivo, 672 h, time 28 day
[17] = Stability in rat liver microsomes assessed as half life at 1 uM measured upto 60 mins in presence of NADPH by LC-MS/MS analysis; assay type: ADME, Microsome
[18] = target: Voltage-gated inwardly rectifying potassium channel KCNH2 (Homo sapiens, UniProt Q12809); assay: Inhibition of hERG transfected in HEK293 cells by patch clamp assay; assay type: toxicity, cell-based
Sapajus apella [19] = assay: Urate lowering effect in Tufted capuchin monkey assessed as fraction excretion of uric acid at 100 mg/kg/day, po qd for 3 days consecutively relative to control; assay type: functional; conditions: time 3 day
[20] = Half life in Tufted capuchin monkey at 10 mg/kg, po measured for 24 hrs by LC-MS/MS analysis; assay type: ADME, organism-based; conditions: sapajus apella, in vivo
[21] = Half life in Cynomolgous monkey at 5 mg/kg, po measured upto 24 hrs by LC-MS/MS analysis; assay type: ADME, organism-based, Macaca fascicularis; conditions: cynomolgus monkey, in vivo
[22] = Half life in Tufted capuchin monkey at 30 mg/kg, po measured for 24 hrs by LC-MS/MS analysis; assay type: ADME, organism-based; conditions: sapajus apella, in vivo
Cytochrome P450 1A2 [23] = target: T1, Cytochrome P450 1A2 (Homo sapiens, UniProt P05177); assay: Induction of CYP1A2 in human hepatocytes at 50 uM incubated for 48 hrs with media containing compound renewal every 24 hrs followed by substrate addition measured after 30 mins by LC-MS/MS analysis; assay type: ADME, cell-based, Hepatocyte; conditions: 48.5 h
T1 sequence (P05177 whole entry): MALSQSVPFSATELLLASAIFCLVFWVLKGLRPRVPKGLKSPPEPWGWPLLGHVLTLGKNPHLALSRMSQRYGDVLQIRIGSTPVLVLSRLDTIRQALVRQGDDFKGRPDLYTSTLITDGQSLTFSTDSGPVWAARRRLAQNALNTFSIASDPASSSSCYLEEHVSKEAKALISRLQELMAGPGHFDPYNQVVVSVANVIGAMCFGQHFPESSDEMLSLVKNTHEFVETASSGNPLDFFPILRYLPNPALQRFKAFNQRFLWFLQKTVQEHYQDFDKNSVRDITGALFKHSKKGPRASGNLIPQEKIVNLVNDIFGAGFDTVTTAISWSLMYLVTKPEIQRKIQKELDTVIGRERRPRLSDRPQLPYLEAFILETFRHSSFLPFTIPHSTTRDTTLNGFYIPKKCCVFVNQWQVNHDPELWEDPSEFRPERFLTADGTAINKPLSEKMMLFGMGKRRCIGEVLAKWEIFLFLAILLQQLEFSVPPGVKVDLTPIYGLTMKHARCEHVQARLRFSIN

[24] = Genotoxicity in Salmonella typhimurium TA1535 by Ames test; assay type: toxicity; conditions: salmonella enterica subsp. enterica serovar typhimurium
[25] = Toxicity in rat assessed as decrease in body weight at 120 mg/kg/day for 28 days; assay type: organism-based; conditions: in vivo, 672 h, time 28 day
Cytochrome P450 3A4 = Cytochrome P450 3A4 (Homo sapiens, UniProt P08684); assay: Induction of CYP3A4 in human hepatocytes at 50 uM incubated for 48 hrs with media containing compound renewal every 24 hrs followed by substrate addition measured after 30 mins by LC-MS/MS analysis; assay type: ADME, cell-based, Hepatocyte; conditions: 48.5 h
[26] = AUC (last) in overnight-fasted Sprague-Dawley rat at 5 mg/kg, po measured upto 24 hrs by LC-MS/MS analysis; assay type: ADME, organism-based; conditions: in vivo
[27] = Toxicity in rat assessed as increase in CHOL level at 120 mg/kg/day for 28 days; assay type: organism-based; conditions: in vivo, 672 h, time 28 day
[28] = Cmax in overnight-fasted Sprague-Dawley rat at 5 mg/kg, po measured upto 24 hrs by LC-MS/MS analysis; assay type: ADME, organism-based; conditions: in vivo
[29] = Inhibition of SLC (unknown origin); set-up: species or system Homo sapiens
Cytochrome P450 2C9 = Cytochrome P450 2C9 (Homo sapiens, UniProt P11712); assay: Inhibition of CYP2C9 in human liver microsomes in presence of NADPH by LC-MS/MS analysis; assay type: ADME, Microsome
[30] = Toxicity in rat assessed as decrease in food consumption at 60 to 120 mg/kg/day for 28 days; assay type: organism-based; conditions: in vivo, 672 h, dose 60-120 mg/kg/day, time 28 day
[31] = AUC (0 to t) in male cynomolgous monkey at 30 mg/kg/day for 28 days; assay type: ADME, organism-based, Macaca fascicularis; conditions: cynomolgus monkey, in vivo, time 28 day
Cytochrome P450 1A2 [32] = target: T1, Cytochrome P450 1A2; assay: Inhibition of CYP1A2 in human liver microsomes in presence of NADPH by LC-MS/MS analysis; assay type: ADME, Microsome
[33] = AUC (0 to t) in female rat at 60 mg/kg/day for 28 days; assay type: ADME, organism-based; conditions: in vivo, time 28 day
Sapajus apella [34] = conditions: dose 30.0 mg/kg/day, route po, time 3.0 day

Sequence of Voltage-gated inwardly rectifying potassium channel KCNH2 (Q12809 whole entry): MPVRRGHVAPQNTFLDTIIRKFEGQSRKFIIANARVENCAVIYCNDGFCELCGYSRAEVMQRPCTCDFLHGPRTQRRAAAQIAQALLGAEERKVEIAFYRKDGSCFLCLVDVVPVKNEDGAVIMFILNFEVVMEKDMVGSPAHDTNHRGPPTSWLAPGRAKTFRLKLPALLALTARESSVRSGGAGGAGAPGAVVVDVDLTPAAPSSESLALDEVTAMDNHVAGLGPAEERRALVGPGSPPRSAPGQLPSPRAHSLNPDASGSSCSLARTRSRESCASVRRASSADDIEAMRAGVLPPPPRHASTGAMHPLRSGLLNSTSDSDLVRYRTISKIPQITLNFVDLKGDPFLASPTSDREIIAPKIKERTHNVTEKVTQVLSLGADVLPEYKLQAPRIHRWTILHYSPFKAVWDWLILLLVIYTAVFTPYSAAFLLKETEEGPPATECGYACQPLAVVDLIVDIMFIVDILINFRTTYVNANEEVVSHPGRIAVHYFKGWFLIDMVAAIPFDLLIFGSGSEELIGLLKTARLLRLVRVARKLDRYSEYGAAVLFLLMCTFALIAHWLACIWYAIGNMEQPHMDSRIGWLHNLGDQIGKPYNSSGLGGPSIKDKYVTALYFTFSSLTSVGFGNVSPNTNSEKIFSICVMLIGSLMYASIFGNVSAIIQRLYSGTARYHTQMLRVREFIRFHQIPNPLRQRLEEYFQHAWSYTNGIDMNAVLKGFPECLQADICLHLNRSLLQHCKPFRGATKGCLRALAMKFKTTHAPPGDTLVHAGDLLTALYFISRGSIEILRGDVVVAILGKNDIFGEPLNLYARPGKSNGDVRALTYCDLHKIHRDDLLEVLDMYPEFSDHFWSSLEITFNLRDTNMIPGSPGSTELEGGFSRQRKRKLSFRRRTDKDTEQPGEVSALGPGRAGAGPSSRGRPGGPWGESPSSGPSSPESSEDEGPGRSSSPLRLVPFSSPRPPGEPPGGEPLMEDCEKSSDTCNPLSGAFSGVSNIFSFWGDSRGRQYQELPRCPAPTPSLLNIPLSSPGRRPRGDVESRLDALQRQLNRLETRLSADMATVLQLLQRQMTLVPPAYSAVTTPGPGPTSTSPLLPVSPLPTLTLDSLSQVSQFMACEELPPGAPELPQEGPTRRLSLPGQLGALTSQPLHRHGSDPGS
Sequence of Cytochrome P450 2C9 (P11712 whole entry): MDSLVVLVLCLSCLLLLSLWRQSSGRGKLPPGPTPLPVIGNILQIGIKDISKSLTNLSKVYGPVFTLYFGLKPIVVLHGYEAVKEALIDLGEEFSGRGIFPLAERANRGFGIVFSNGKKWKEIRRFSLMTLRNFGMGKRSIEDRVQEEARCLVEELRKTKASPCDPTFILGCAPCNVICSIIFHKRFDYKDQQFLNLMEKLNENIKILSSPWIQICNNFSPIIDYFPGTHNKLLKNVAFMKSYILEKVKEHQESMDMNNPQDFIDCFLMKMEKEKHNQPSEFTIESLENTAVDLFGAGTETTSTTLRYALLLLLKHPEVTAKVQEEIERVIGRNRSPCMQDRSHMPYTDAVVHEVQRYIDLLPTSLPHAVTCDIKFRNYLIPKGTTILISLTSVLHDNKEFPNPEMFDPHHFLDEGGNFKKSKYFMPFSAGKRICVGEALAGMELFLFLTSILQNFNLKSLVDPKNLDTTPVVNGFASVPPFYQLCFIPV
Sequence of Cytochrome P450 2D6 (P10635 whole entry): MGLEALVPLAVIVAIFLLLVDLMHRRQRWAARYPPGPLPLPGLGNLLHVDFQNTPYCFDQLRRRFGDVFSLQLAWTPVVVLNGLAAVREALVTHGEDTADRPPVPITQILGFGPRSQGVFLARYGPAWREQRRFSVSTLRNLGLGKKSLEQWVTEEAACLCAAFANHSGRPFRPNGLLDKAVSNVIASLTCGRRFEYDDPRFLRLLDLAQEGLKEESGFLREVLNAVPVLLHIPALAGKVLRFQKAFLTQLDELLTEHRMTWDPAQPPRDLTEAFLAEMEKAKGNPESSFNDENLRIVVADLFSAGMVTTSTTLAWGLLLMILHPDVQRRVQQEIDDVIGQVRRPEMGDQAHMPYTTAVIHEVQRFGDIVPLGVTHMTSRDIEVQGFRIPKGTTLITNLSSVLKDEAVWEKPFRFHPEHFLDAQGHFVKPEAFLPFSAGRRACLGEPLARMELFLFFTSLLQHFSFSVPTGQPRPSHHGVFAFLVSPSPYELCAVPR
Sequence of Cytochrome P450 3A4 (P08684 whole entry): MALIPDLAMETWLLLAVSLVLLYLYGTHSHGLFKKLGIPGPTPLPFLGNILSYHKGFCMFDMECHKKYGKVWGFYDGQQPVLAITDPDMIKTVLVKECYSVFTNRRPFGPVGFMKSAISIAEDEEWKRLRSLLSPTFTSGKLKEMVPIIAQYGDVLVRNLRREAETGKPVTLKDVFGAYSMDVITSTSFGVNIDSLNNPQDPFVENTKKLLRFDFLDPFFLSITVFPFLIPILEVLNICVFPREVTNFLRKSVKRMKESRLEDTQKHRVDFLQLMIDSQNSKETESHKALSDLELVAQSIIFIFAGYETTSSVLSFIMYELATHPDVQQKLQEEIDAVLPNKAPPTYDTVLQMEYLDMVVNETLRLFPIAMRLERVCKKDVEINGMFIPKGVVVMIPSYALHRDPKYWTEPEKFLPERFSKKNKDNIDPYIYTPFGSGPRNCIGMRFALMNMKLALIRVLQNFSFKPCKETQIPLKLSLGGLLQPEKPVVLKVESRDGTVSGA

With `N#Cc1cc(-c2ccc(C(=O)O)c(O)c2)c2oc(F)cc2c1` as the compound, how does the AUC(0-t) at 24 h [1] read?
Its AUC(0-t) at 24 h is 3.13 µg·h/mL.

And the Activity [2]?
The Activity was “Non-Toxic”.

And the IC50 (Cytochrome P450 2D6)?
The IC50 was over 50 µM.

What about the Activity [3] of the same compound?
Its Activity is “Toxic”.

And the AUC(0-t) at 24 h [4]?
Its AUC(0-t) at 24 h is 11.5 µg·h/mL.

What about the Activity [5] of the same compound?
The Activity was “Non-Toxic”.

And the bioavailability [6]?
Its bioavailability is 69.9%.

What about the Cmax [7] of the same compound?
The Cmax was 16700 ng/mL.

And the Vdss [8]?
The Vdss was 0.31 L/kg.

And the clearance [9]?
Its clearance is 5.07 mL/min/kg.

What about the clearance [10] of the same compound?
Its clearance is 1.51 mL/min/kg.

What about the AUC(0-t) at 24 h [11] of the same compound?
The AUC(0-t) at 24 h was 16.1 µg·h/mL.

What about the Activity [12] of the same compound?
Its Activity is “Toxic”.

What about the Activity [13] of the same compound?
The Activity was “Toxic”.

What about the Tmax [14] of the same compound?
Its Tmax is 0.9 h.

What about the Activity [15] of the same compound?
The Activity was “Toxic”.

And the Activity [16]?
Its Activity is “Toxic”.

What about the half-life at 1 µM [17] of the same compound?
Its half-life at 1 µM is 3.38 h.

And the IC50 [18]?
Its IC50 is over 52 µM.

And the Activity (Sapajus apella [19])?
The Activity was 23.55%.

And the half-life [20]?
The half-life was 1.52 h.

What about the half-life [21] of the same compound?
The half-life was 7.9 h.

What about the half-life [22] of the same compound?
Its half-life is 3.1 h.

And the Activity (Cytochrome P450 1A2 [23])?
Its Activity is under 20%.

What about the Activity [24] of the same compound?
Its Activity is “Non-Toxic”.

What about the Activity [25] of the same compound?
The Activity was “Toxic”.

And the Activity (Cytochrome P450 3A4)?
Its Activity is under 20%.

And the AUC(0-t) at 24 h [26]?
Its AUC(0-t) at 24 h is 81.7 µg·h/mL.

And the Activity [27]?
Its Activity is “Toxic”.

What about the Cmax [28] of the same compound?
Its Cmax is 17200 ng/mL.

What about the IC50 [29] of the same compound?
Its IC50 is over 0.628 µM.

What about the IC50 (Cytochrome P450 2C9) of the same compound?
The IC50 was 2.78 µM.

And the Activity [30]?
The Activity was “Toxic”.

What about the AUC(0-t) at 672 h [31] of the same compound?
The AUC(0-t) at 672 h was 339 µg·h/mL.

And the IC50 (Cytochrome P450 1A2 [32])?
The IC50 was over 50 µM.

What about the AUC(0-t) at 672 h [33] of the same compound?
Its AUC(0-t) at 672 h is 2390 µg·h/mL.

And the AUC (Sapajus apella [34])?
The AUC was 504000 ng·h/mL.
